“Also recorded” adds a separate entry of the source.
Assays:
wild-type C6 cells = experiment: Ca2+ imaging (Fura-2), leptin and CCK-8s signalling interaction in wild-type C6 cells; format: cell-based, rat
Procedure: (§1) Rat C6 glioma cells were cultured in Dulbecco’s Modified Eagle Medium/F12 (DMEM/F12) supplemented with 10% FBS, sodium bicarbonate (1.2 g/L), and 1% penicillin/streptomycin antibiotics at 37 °C in 5% CO2. The full-length mouse leptin receptor (ObRb) in pcDNA3.1 vector was kindly provided by Dr. Christian Bjørbaek (BIDMC, Harvard Medical School, Boston, MA, USA) and transfected using Lipofectamine 2000. Subsequently, the cells were cultured in medium containing 500 μg/mL G418 for cell selection.
C6 cells plated on 35 mm plastic dishes were gently rinsed with buffered salt solution (BSS) consisting of 130 mM NaCl, 5.4 mM KCl, 2 mM CaCl2, 1 mM MgCl2, 5.5 mM D-glucose, and 10 mM HEPES/NaOH (pH 7.4), and incubated in BSS supplemented with 6 µM Fura-2 AM (Dojindo Laboratories, Kumamoto, Japan) for 30 min in a CO2 incubator. Prior to photometry, the cells were rinsed again with BSS, incubated at 37°C for 15 min, and then continuously perfused with BSS at 34°C at a flow rate of 3 mL/min. Fluorescence images were obtained using an upright microscope (Axioplan2; Carl Zeiss, Thornwood, NY, USA) with a water-immersion objective (Achroplan×20 NA0.5w; Carl Zeiss). The wavelength of the excitation UV light (340 nm or 380 nm pulse; 250 msec) was switched using a filter wheel (Lambda 10-2; Sutter Instruments, Novato, CA, USA). The UV light was generated by a full spectrum 300W Xenon bulb (Lambda LS; Sutter Instruments), conducted to the microscope through a liquid light guide. The pair of fluorescent images was processed using a band-pass filter (485–515 nm) and exposed to a multiple format cooled CCD camera (CoolSnap-fx; Photometrics, Tucson, AZ, USA) at 6-sec intervals. The filter wheel and the CCD camera were controlled using digital imaging software (MetaFluor ver. 6.2; Japan Molecular Devices, Tokyo, Japan). The background fluorescence was also subtracted using the software.
During image acquisition, leptin (PeproTech, Rocky Hill, NJ, USA), CCK-4 (Peptide Institute, Inc., Osaka, Japan), CCK-8s (Sigma-Aldrich, St. Louis, MO, USA), AG490 (Calbiochem, San Diego, CA), LY294002 (Calbiochem), LY225910 (R&D Systems, Minneapolis, MN, USA), LGM (LKT Laboratories Inc., St. Paul, MN, USA), and ATP (Sigma-Aldrich) were applied by switching the perfusate. The magnitude of Ca^2+ responses was determined by peak area analysis using Origin 5.0 software (OriginLab, Northampton, MA, USA).

[1] = test system: meal frequency / meal size; conditions: CCK; cited from earlier work
From the text: Although CCK and leptin have been commonly described as satiety controlling peptides, their differential roles have also been highlighted. […] Among the wide variety of intracellular signalling machineries linked to ObRb, it is still uncertain which pathway(s) is/are linked to what type of satiety controls. pSTAT3-ir is used as a genera ...

mice = conditions: sub-threshold CCK and leptin, individually no effect on feeding; cited from earlier work
From the text: (§2) Also, the effect of CCK on satiety control is attenuated in Zucker fa/fa rats lacking functional leptin receptors. In addition, other evidence implicated that leptin-mediated satiety-controlling systems may strongly interact with CCK systems[18],[50]–[54]. For example, c-Fos expression in oxytocin neurons in the hypothalamic paraventricular nucleus is elevated by leptin administration, and these neurons have axons tha ...

rats = conditions: sub-threshold CCK and leptin, individually no effect on feeding; cited from earlier work
From the text: as §2

[2] = test system: Zucker fa/fa rats lacking functional leptin receptors; conditions: cited from earlier work
From the text: as §2

VMN cells = experiment: Ca2+ imaging in rat VMN slices; format: cell-based; conditions: LGM 1 µM; leptin 1–1,000 nM; p < 0.01 two-way ANOVA
[3] = test system: c-Fos and pSTAT3 in the VMN; experiment: Nuclear c-Fos and pSTAT3 in VMN after i.p. LGM; format: in vivo, rat; conditions: LGM 10 mg/kg i.p., 3 h, after RF, versus saline
Procedure: (§3) To investigate the cellular consequences underlying the above behavioral responses, the different groups of rats that received RF were killed 3-h after the LGM (10 mg/kg) or saline injections. Subsequently, nuclear pSTAT3-ir and c-Fos-ir were visualized in the […] by immunohistochemistry. An astrocyte marker (glial fibrillary acidic protein, GFAP) was counterstained as a landmark of ARC because ARC is the astrocyte-rich ventral neuronal nucleus (Fig. 8A). […]
(§4) Images were acquired using a confocal laser-scanning microscope (Olympus FV1000 or Nikon A1R MP plus) with a laser diode (405 nm), argon laser (488 nm), and helium neon laser ([…]). The nuclear immunofluorescent intensity (8-bit depth) was analyzed using Photoshop CS 6 software.
(§5) Male rats aged 2–3 months were individually housed in originally designed cylindrical chambers (30 cm ϕ, H30 cm). […] Because the bottom of the pellet server was placed 22 cm above the floor, purposeful food access behavior, but not general locomotor activities, was counted using this system. The ON/OFF signals from the sensor were fed into a laptop computer through a photo-coupler isolated digital I/O card (Contec Inc. PIO-16/16L) and automatically counted at 3-min intervals by software written by M.I.

CCK-1 receptor = experiment: Food access frequency after i.p. LGM following 1-h restricted feeding; format: in vivo, rat; conditions: LGM 10 mg/kg i.p., 3 h before re-feeding; n = 5–6 per group; p < 0.05
Procedure: Male rats aged 2–3 months were individually housed in originally designed cylindrical chambers (30 cm ϕ, H30 cm). Food was given ad libitum from slits of stainless pellet server placed 22 cm above the floor. During the RF, rats were fed with fatty food paste composed of 50% nutrient commixture chow powder, 20% soybean oil, and 30% water on a glass dish. Following removal of the dish, sterilized saline (1 ml/kg body weight) were i.p. injected. Leftover food paste was weighed after RF to calculate daily intake. Rats were acclimatized to this environment for 4 days. On day 5 of RF, saline or LGM (2 or 10 mg/kg body weight) dissolved in saline was injected. Three hours after the drug injection, rats were re-fed with regular chow in a previously setup pellet server. A touch sensing probe (Elekit PS-306) was connected to the pellet server. Because the bottom of the pellet server was placed 22 cm above the floor, purposeful food access behavior, but not general locomotor activities, was counted using this system. The ON/OFF signals from the sensor were fed into a laptop computer through a photo-coupler isolated digital I/O card (Contec Inc. PIO-16/16L) and automatically counted at 3-min intervals by software written by M.I.

[4] = test system: c-Fos and pSTAT3 in the ARC; experiment: Nuclear c-Fos and pSTAT3 in ARC after i.p. LGM; format: in vivo, rat; conditions: LGM 10 mg/kg i.p., 3 h, after RF, versus saline
Procedure: as §3, §4, §5

[5] = test system: CCK-2 receptor (C6 cells); experiment: Ca2+ imaging (Fura-2), CCK-2 receptor agonist response in C6 cells; format: cell-based, rat; conditions: CCK-4 100 nM; n = 35/three dishes; Fura-2, 34°C, BSS pH 7.4
Procedure: as §1
(§6) C6 cells plated on 35 mm plastic dishes were gently rinsed with buffered salt solution (BSS) consisting of 130 mM NaCl, 5.4 mM KCl, 2 mM CaCl2, 1 mM MgCl2, 5.5 mM D-glucose, and 10 mM HEPES/NaOH (pH 7.4), and incubated in BSS supplemented with 6 µM Fura-2 AM (Dojindo Laboratories, Kumamoto, Japan) for 30 min in a CO2 incubator. Prior to photometry, the cells were rinsed again with BSS, incubated at 37°C for 15 min, and then continuously perfused with BSS at 34°C at a flow rate of 3 mL/min. Fluorescence images were obtained using an upright microscope (Axioplan2; Carl Zeiss, Thornwood, NY, USA) with a water-immersion objective (Achroplan×20 NA0.5w; Carl Zeiss). The wavelength of the excitation UV light (340 nm or 380 nm pulse; 250 msec) was switched using a filter wheel (Lambda 10-2; Sutter Instruments, Novato, CA, USA). […] The background fluorescence was also subtracted using the software. […]

pSTAT3 in C6-ObRb cells = experiment: Immunofluorescent staining of pSTAT3 in C6-ObRb cells; format: cell-based, rat C6 cells, mouse ObRb; conditions: for cytosolic pSTAT3 signal with kinase inhibitor: AG490 1 µM or LY294002 50 µM
Procedure: as §1
[…] Cells were treatment with AG490 (1 μM) or LY294002 (50 μM) 15 min prior to the leptin stimulation until the time of fixation. These cells were fixed in 4% phosphate-buffered paraformaldehyde for 15 min and washed three times with PBS(−). The fixed samples were then incubated for 2 h at room temperature in 10% donkey serum dissolved in 0.1% Triton-X PBS(−). Next, samples were incubated with 1:100 affinity-purified rabbit phospho-STAT3 (pTyr^705) dissolved in 5% donkey serum PBS(−) for 24 h at 4 °C. After three 20-min PBS(−) rinses, samples were incubated in 1:400 Cy3-conjugated donkey anti-rabbit IgG for 2 h at room temperature. Finally, samples were rinsed with PBS(−) (four 15-min rinses on an orbital shaker) and mounted using Vectashield containing 4′,6-diamidino-2-phenylindole (DAPI).
as §4

[6] = test system: CCK-2 receptor (C6 cells); experiment: Ca2+ imaging (Fura-2), CCK-2 antagonism added to LGM in C6 cells; format: cell-based, rat; conditions: LY225910 100 nM additional to LGM 100 nM; CCK-8s 10 nM; p < 0.01
Procedure: as §1, §6

## Nc1ncnc2c1ncn2[C@@H]1O[C@H](COP(=O)(O)OP(=O)(O)OP(=O)(O)O)[C@@H](O)[C@H]1O [ATP]
wild-type C6 cells; ATP 100 µM at the end of experiment
  Ca2+ mobilization, positive control: High Ca^2+ mobilization

## cholecystokinin [CCK]
[1]
  meal frequency: reduce meal frequency
mice
  food intake, co-administration with leptin: dramatically reduced food intake
rats
  food intake, co-administration with leptin: dramatically reduced food intake
[2]
  effect of CCK on satiety control in Zucker fa/fa rats: attenuated

## CCCCCN(CCCCC)C(=O)C(CCC(=O)O)NC(=O)c1ccc(Cl)c(Cl)c1 (stereo not shown) [LGM, lorglumide]
VMN cells
  effect of CCK-1 antagonist on leptin-induced Ca2+ responses: reduced leptin-induced Ca^2+ responses
[3]; 18 images in four rats, p < 0.05
  number of cells displaying c-Fos-ir, VMN: significantly decreased the number of cells displaying c-Fos-ir
[3]; P < 0.05
  number of cells displaying pSTAT3-ir, VMN: increased number of cells displaying pSTAT3-ir
CCK-1 receptor
  food access frequency at the onset of re-feeding relative to saline control: 1.8 times
[4]
  number of cells displaying c-Fos-ir, ARC: failed to modulate the number of cells displaying c-Fos-ir
[4]; 14 images in four rats, p < 0.01
  number of cells displaying pSTAT3-ir, ARC: increased number of cells displaying pSTAT3-ir

## CCK-4
[5]
  C6 cells displaying Ca2+ transients: approximately 20%

## N#C/C(=C/c1ccc(O)c(O)c1)C(=O)NCc1ccccc1 [AG490]
wild-type C6 cells; AG490 1 μM, 10 min, leptin pre-treatment, CCK-8s, n = 48/three dishes
  effect of JAK inhibitor on leptin amplification of CCK-8s-induced Ca2+ mobilization: leptin failed to amplify the CCK-8s-induced Ca^2+ mobilization; also recorded: significantly reduced leptin action for CCK-8s-induced Ca^2+ mobilization
pSTAT3 in C6-ObRb cells; AG490 1 µM from 15 min prior to leptin stimulation until fixation, 30 images/three dishes, p < 0.01
  nuclear pSTAT3-ir with JAK inhibitor: significantly reduced nuclear pSTAT3-ir below the level of un-stimulated controls; also recorded: blocked leptin-induced nuclear pSTAT3 elevation
pSTAT3 in C6-ObRb cells
  cytosolic pSTAT3 signal with kinase inhibitor: cytosolic pSTAT3 signal was not elevated

## O=c1cc(N2CCOCC2)oc2c(-c3ccccc3)cccc12 [LY294002]
wild-type C6 cells; LY294002 50 µM, 10 min, leptin pre-treatment, CCK-8s, n = 45/three dishes
  effect of PI3K inhibitor on (leptin-amplified) CCK-8s-induced Ca2+ mobilization: significantly inhibited CCK-8s-induced Ca^2+ mobilization; also recorded: significantly reduced leptin action for CCK-8s-induced Ca^2+ mobilization
pSTAT3 in C6-ObRb cells
  cytosolic pSTAT3 signal with kinase inhibitor: cytosolic pSTAT3 signal was not elevated
pSTAT3 in C6-ObRb cells; LY294002 50 µM from 15 min prior to leptin stimulation until fixation, 30 images/three dishes, p < 0.01
  nuclear pSTAT3-ir with PI3K inhibitor: significantly reduced nuclear pSTAT3-ir below the level of un-stimulated controls; also recorded: blocked leptin-induced nuclear pSTAT3 elevation

## CC(C)Oc1cccc(-n2c(CCc3c[nH]c4ccc(Br)cc34)nc3ccccc3c2=O)c1 [LY225910]
[6]
  reduction of CCK-8s-induced Ca2+ transients: almost completely reduced
